Test results from ChEMBL document CHEMBL1212752, “Efficacy of posaconazole in a murine disseminated infection by Candida tropicalis” (2010).
≈ marks a conversion by molar mass, not a printed value. Calls of active or inactive are those of the source. The calls are words filed in the database; no cut-off is given here.

Assays:
Candida tropicalis [1] = test: Antifungal activity against Candida tropicalis FMR 10231 assessed as inhibition of growth by broth dilution method; assay type: functional
Candida tropicalis [2] = test: Antifungal activity against Candida tropicalis FMR 10240 assessed as compound concentration causing =>99% reduction in microbial growth; assay type: functional
Candida tropicalis [3] = test: Antifungal activity against Candida tropicalis FMR 9726 infected in immunosuppressed OF1 mouse assessed as reduction in fungal tissue burden in mouse spleen at 50 mg/kg, po qd for 5 days; assay type: functional, organism-based; parameters: dose 50 mg/kg
Candida tropicalis [4] = test: Antifungal activity against Candida tropicalis FMR 10238 assessed as compound concentration causing =>99% reduction in microbial growth; assay type: functional
Candida tropicalis [5] = test: Antifungal activity against Candida tropicalis FMR 10237 infected in immunosuppressed OF1 mouse assessed as reduction in fungal tissue burden in mouse kidney at 50 mg/kg, po qd for 5 days; assay type: functional, organism-based; parameters: dose 50 mg/kg
Candida tropicalis [6] = test: Antifungal activity against Candida tropicalis FMR 10232 assessed as compound concentration causing =>99% reduction in microbial growth; assay type: functional
Candida tropicalis [7] = test: Antifungal activity against Candida tropicalis FMR 9727 infected in immunosuppressed OF1 mouse assessed as prolongation of mouse survival at 50 mg/kg, po qd for 5 days; assay type: functional, organism-based; parameters: dose 50 mg/kg
Candida tropicalis [8] = test: Antifungal activity against Candida tropicalis FMR 10237 assessed as compound concentration causing =>99% reduction in microbial growth; assay type: functional
Candida tropicalis [9] = test: Antifungal activity against Candida tropicalis FMR 9726 infected in immunosuppressed OF1 mouse assessed as reduction in fungal tissue burden in mouse spleen at 25 mg/kg, po bid for 5 days; assay type: functional, organism-based; parameters: dose 25 mg/kg
Candida tropicalis [10] = test: Antifungal activity against Candida tropicalis FMR 10239 infected in immunosuppressed OF1 mouse assessed as reduction in fungal tissue burden in mouse spleen at 25 mg/kg, po bid for 5 days; assay type: functional, organism-based; parameters: dose 25 mg/kg
Candida tropicalis [11] = test: Antifungal activity against Candida tropicalis FMR 8896 assessed as compound concentration causing =>99% reduction in microbial growth; assay type: functional
Candida tropicalis [12] = test: Antifungal activity against Candida tropicalis FMR 10234 assessed as compound concentration causing =>99% reduction in microbial growth; assay type: functional
Candida tropicalis [13] = test: Antifungal activity against Candida tropicalis FMR 8897 assessed as inhibition of growth by broth dilution method; assay type: functional
Candida tropicalis [14] = test: Antifungal activity against Candida tropicalis FMR 10239 infected in immunosuppressed OF1 mouse assessed as reduction in fungal tissue burden in mouse kidney at 50 mg/kg, po qd for 5 dayss; assay type: functional, organism-based; parameters: dose 50 mg/kg
Candida tropicalis [15] = test: Antifungal activity against Candida tropicalis FMR 10237 infected in immunosuppressed OF1 mouse assessed as reduction in fungal tissue burden in mouse spleen at 50 mg/kg, po qd for 5 days; assay type: functional, organism-based; parameters: dose 50 mg/kg
Candida tropicalis [16] = test: Antifungal activity against Candida tropicalis FMR 10333 assessed as compound concentration causing =>99% reduction in microbial growth; assay type: functional
Candida tropicalis [17] = test: Antifungal activity against Candida tropicalis FMR 9727 assessed as compound concentration causing =>99% reduction in microbial growth; assay type: functional
Candida tropicalis [18] = test: Antifungal activity against Candida tropicalis FMR 8895 infected in immunosuppressed OF1 mouse assessed as prolongation of mouse survival at 25 mg/kg, po bid for 5 days; assay type: functional, organism-based; parameters: dose 25 mg/kg
Candida tropicalis [19] = test: Antifungal activity against Candida tropicalis FMR 10232 assessed as inhibition of growth by broth dilution method; assay type: functional
Candida tropicalis [20] = test: Antifungal activity against Candida tropicalis FMR 8896 assessed as inhibition of growth by broth dilution method; assay type: functional
Candida tropicalis [21] = test: Antifungal activity against Candida tropicalis FMR 10240 assessed as inhibition of growth by broth dilution method; assay type: functional
Candida tropicalis [22] = test: Antifungal activity against Candida tropicalis FMR 10333 assessed as inhibition of growth by broth dilution method; assay type: functional
Candida tropicalis [23] = test: Antifungal activity against Candida tropicalis FMR 10237 infected in immunosuppressed OF1 mouse assessed as prolongation of mouse survival at 25 mg/kg, po bid for 5 days; assay type: functional, organism-based; parameters: dose 25 mg/kg
Candida tropicalis [24] = test: Antifungal activity against Candida tropicalis FMR 10239 assessed as compound concentration causing =>99% reduction in microbial growth; assay type: functional
Candida tropicalis [25] = test: Antifungal activity against Candida tropicalis FMR 8898 assessed as compound concentration causing =>99% reduction in microbial growth; assay type: functional
Candida tropicalis [26] = test: Antifungal activity against Candida tropicalis FMR 10238 assessed as inhibition of growth by broth dilution method; assay type: functional
Candida tropicalis [27] = test: Antifungal activity against Candida tropicalis FMR 10231 assessed as compound concentration causing =>99% reduction in microbial growth; assay type: functional
Candida tropicalis [28] = test: Antifungal activity against Candida tropicalis FMR 10239 infected in immunosuppressed OF1 mouse assessed as reduction in fungal tissue burden in mouse spleen at 50 mg/kg, po qd for 5 days; assay type: functional, organism-based; parameters: dose 50 mg/kg
Candida tropicalis [29] = test: Antifungal activity against Candida tropicalis FMR 8895 infected in immunosuppressed OF1 mouse assessed as reduction in fungal tissue burden in mouse spleen at 25 mg/kg, po bid for 5 days; assay type: functional, organism-based; parameters: dose 25 mg/kg
Candida tropicalis [30] = test: Antifungal activity against Candida tropicalis FMR 10234 assessed as inhibition of growth by broth dilution method; assay type: functional
Candida tropicalis [31] = test: Antifungal activity against Candida tropicalis FMR 9727 infected in immunosuppressed OF1 mouse assessed as prolongation of mouse survival at 25 mg/kg, po bid for 5 days; assay type: functional, organism-based; parameters: dose 25 mg/kg
Candida tropicalis [32] = test: Antifungal activity against Candida tropicalis FMR 10239 infected in immunosuppressed OF1 mouse assessed as prolongation of mouse survival at 50 mg/kg, po qd for 5 days; assay type: functional, organism-based; parameters: dose 50 mg/kg

Structure (SMILES): CC[C@@H]([C@H](C)O)n1ncn(-c2ccc(N3CCN(c4ccc(OC[C@@H]5CO[C@@](Cn6cncn6)(c6ccc(F)cc6F)C5)cc4)CC3)cc2)c1=O [POSACONAZOLE]
- MIC50 (Candida tropicalis [1]): 0.06 µg/mL (≈ 0.0856 µM)
- MFC (Candida tropicalis [2]): > 16 µg/mL
- Activity (Candida tropicalis [3]): Active
- MFC (Candida tropicalis [4]): > 16 µg/mL
- Activity (Candida tropicalis [5]): Active
- MFC (Candida tropicalis [6]): > 16 µg/mL
- Activity (Candida tropicalis [7]): Active
- MFC (Candida tropicalis [8]): > 16 µg/mL
- Activity (Candida tropicalis [9]): Active
- Activity (Candida tropicalis [10]): Active
- MFC (Candida tropicalis [11]): > 16 µg/mL
- MFC (Candida tropicalis [12]): > 16 µg/mL
- MIC50 (Candida tropicalis [13]): 0.06 µg/mL (≈ 0.0856 µM)
- Activity (Candida tropicalis [14]): Active
- Activity (Candida tropicalis [15]): Active
- MFC (Candida tropicalis [16]): > 16 µg/mL
- MFC (Candida tropicalis [17]): > 16 µg/mL
- Activity (Candida tropicalis [18]): Active
- MIC50 (Candida tropicalis [19]): 0.06 µg/mL (≈ 0.0856 µM)
- MIC50 (Candida tropicalis [20]): 0.125 µg/mL (≈ 0.178 µM)
- MIC50 (Candida tropicalis [21]): < 0.03 µg/mL
- MIC50 (Candida tropicalis [22]): 0.06 µg/mL (≈ 0.0856 µM)
- Activity (Candida tropicalis [23]): Active
- MFC (Candida tropicalis [24]): 1 µg/mL (≈ 1.43 µM)
- MFC (Candida tropicalis [25]): > 16 µg/mL
- MIC50 (Candida tropicalis [26]): 0.06 µg/mL (≈ 0.0856 µM)
- MFC (Candida tropicalis [27]): > 16 µg/mL
- Activity (Candida tropicalis [28]): Active
- Activity (Candida tropicalis [29]): inactive
- MIC50 (Candida tropicalis [30]): 0.06 µg/mL (≈ 0.0856 µM)
- Activity (Candida tropicalis [31]): Active
- Activity (Candida tropicalis [32]): Active
